Data as given in ChEMBL document CHEMBL5252541, “Repurposing antipsychotic drugs into antifungal agents: Synergistic combinations of azoles and bromperidol derivatives in the treatment of various fungal infections” (Eur J Med Chem, 2017).
Active and inactive are the calls of the source. No cut-off for these calls is given here.

Legend:
[1] = Cytotoxicity against mouse J774.A1 cells assessed as cell survival at 16 microg/ml by XTT assay; format: toxicity, cell-based; details: at 16 µg/mL, read-out: Activity
Candida albicans [2] = assay: Antifungal activity against Candida albicans ATCC 64124 measured after 48 hrs by broth microdilution analysis; format: functional
Candida albicans [3] = assay: Synergistic antifungal activity against Candida albicans ATCC 64124 assessed as compound MIC measured after 48 hrs in presence of itraconazole by checkboard based microplate reader analysis; format: functional
Candida albicans [4] = assay: Partial synergistic antifungal activity against Candida albicans ATCC 10231 assessed as fractional inhibitory concentration index measured for 72 hrs in presence of ketoconazole; format: functional
Candida albicans [5] = assay: Additive antifungal activity against Candida albicans ATCC 10231 assessed as fractional inhibitory concentration index measured for 72 hrs in presence of fluconazole; format: functional
Candida albicans [6] = assay: Synergistic antifungal activity against Candida albicans ATCC 10231 assessed as compound MIC measured after 48 hrs in presence of posaconazole by checkboard based microplate reader analysis; format: functional
Candida albicans [7] = assay: Antifungal activity against Candida albicans ATCC MYA-2876 measured after 48 hrs by broth microdilution analysis; format: functional
Candida albicans [8] = assay: Synergistic antifungal activity against Candida albicans ATCC 10231 assessed as compound MIC measured after 48 hrs in presence of fluconazole by checkboard based microplate reader analysis; format: functional
Candida albicans [9] = assay: Synergistic antifungal activity against Candida albicans ATCC 64124 assessed as compound MIC measured after 48 hrs in presence of ketoconazole by checkboard based microplate reader analysis; format: functional
Candida albicans [10] = assay: Synergistic antifungal activity against Candida albicans ATCC 64124 assessed as compound MIC measured after 48 hrs in presence of voriconazole by checkboard based microplate reader analysis; format: functional
Candida albicans [11] = assay: Potency index, ratio of posaconazole MIC to test compound MIC for antifungal activity against Candida albicans ATCC 10231 measured after 48 hrs by broth microdilution analysis; format: functional
Candida albicans [12] = assay: Synergistic antifungal activity against Candida albicans ATCC 64124 assessed as fractional inhibitory concentration index measured for 72 hrs in presence of voriconazole; format: functional
Candida albicans [13] = assay: Additive antifungal activity against Candida albicans ATCC MYA-1237 assessed as fractional inhibitory concentration index measured for 72 hrs in presence of posaconazole; format: functional
Candida albicans [14] = assay: Synergistic antifungal activity against Candida albicans ATCC 10231 assessed as compound MIC measured after 48 hrs in presence of itraconazole by checkboard based microplate reader analysis; format: functional
Candida albicans [15] = assay: Fungicidal activity against Candida albicans ATCC 64124 assessed as reduction in colony forming units at 8 times MIC incubated for 24 hrs by time kill assay; format: functional, organism-based
Candida albicans [16] = assay: Additive antifungal activity against Candida albicans ATCC MYA-2876 assessed as fractional inhibitory concentration index measured for 72 hrs in presence of voriconazole; format: functional
Candida albicans [17] = assay: Antifungal activity against Candida albicans ATCC MYA-1003 measured after 48 hrs by broth microdilution analysis; format: functional
Candida albicans [18] = assay: Partial synergistic antifungal activity against Candida albicans ATCC MYA-1003 assessed as fractional inhibitory concentration index measured for 72 hrs in presence of voriconazole; format: functional
Candida albicans [19] = assay: Partial synergistic antifungal activity against Candida albicans ATCC 10231 assessed as fractional inhibitory concentration index measured for 72 hrs in presence of itraconazole; format: functional
Candida albicans [20] = assay: Synergistic antifungal activity against Candida albicans ATCC 64124 assessed as fractional inhibitory concentration index measured for 72 hrs in presence of posaconazole; format: functional
Nakaseomyces glabratus [21] = assay: Synergistic antifungal activity against Candida glabrata ATCC 2001 assessed as fractional inhibitory concentration index measured for 72 hrs in presence of posaconazole; format: functional
[22] = Cytotoxicity against human HEK293 cells assessed as cell survival at 16 microg/ml in presence of posaconazole by XTT assay; format: toxicity, cell-based; details: at 16 µg/mL
[23] = Cytotoxicity against human HEK293 cells assessed as cell survival at 1 to 16 microg/ml in presence of posaconazole by XTT assay; format: toxicity, cell-based; details: at 1 to 16 µg/mL, dose 1-16 µg/ml
Candida albicans [24] = assay: Additive antifungal activity against Candida albicans ATCC MYA-1237 assessed as fractional inhibitory concentration index measured for 72 hrs in presence of voriconazole; format: functional
BEAS-2B [25] = assay: Cytotoxicity against human BEAS-2B cells assessed as cell survival at 64 microg/ml by XTT assay; format: toxicity, cell-based; details: dose 64 µg/ml
HEK293 = assay: Cytotoxicity against human HEK293 cells assessed as cell survival at 32 microg/ml in presence of voriconazole by XTT assay
[26] = Cytotoxicity against HEK293 cells assessed as cell survival by XTT assay; format: toxicity, cell-based; details: human, read-out: Activity
Candida albicans [27] = assay: Additive antifungal activity against Candida albicans ATCC MYA-2876 assessed as fractional inhibitory concentration index measured for 72 hrs in presence of posaconazole; format: functional
Nakaseomyces glabratus [28] = assay: Additive antifungal activity against Candida glabrata ATCC 2001 assessed as fractional inhibitory concentration index measured for 72 hrs in presence of posaconazole; format: functional
Candida albicans [29] = assay: Partial synergistic antifungal activity against Candida albicans ATCC 64124 assessed as fractional inhibitory concentration index measured for 72 hrs in presence of ketoconazole; format: functional
Candida albicans [30] = assay: Partial synergistic antifungal activity against Candida albicans ATCC MYA-1003 assessed as fractional inhibitory concentration index measured for 72 hrs in presence of posaconazole; format: functional
BEAS-2B [31] = assay: Cytotoxicity against human BEAS-2B cells assessed as cell survival at 8 microg/ml by XTT assay; format: toxicity, cell-based; details: dose 8 µg/ml
Candida albicans [32] = assay: Synergistic antifungal activity against Candida albicans ATCC 10231 assessed as compound MIC measured after 48 hrs in presence of voriconazole by checkboard based microplate reader analysis; format: functional
Candida albicans [33] = assay: Antifungal activity against Candida albicans ATCC MYA-1237 measured after 48 hrs by broth microdilution analysis; format: functional
Candida albicans [34] = assay: Partial synergistic antifungal activity against Candida albicans ATCC 10231 assessed as fractional inhibitory concentration index measured for 72 hrs in presence of posaconazole; format: functional
Candida albicans [35] = assay: Fungicidal activity against Candida albicans ATCC 64124 assessed as reduction in colony forming units at 2 to 8 times MIC incubated after 6 hrs in presence of posaconazole by time kill assay; format: functional, organism-based
BEAS-2B [36] = assay: Cytotoxicity against human BEAS-2B cells assessed as cell survival up to 4 microg/ml by XTT assay; format: toxicity, cell-based; details: dose < 4 µg/ml
Candida albicans [37] = assay: Partial synergistic antifungal activity against Candida albicans ATCC 10231 assessed as fractional inhibitory concentration index measured for 72 hrs in presence of voriconazole; format: functional
[38] = Cytotoxicity against human BEAS-2B cells assessed as cell survival at 8 microg/ml in presence of posaconazole by XTT assay; format: toxicity, cell-based; details: at 8 µg/mL, read-out: Activity
Candida albicans [39] = assay: Synergistic antifungal activity against Candida albicans ATCC 10231 assessed as compound MIC measured after 48 hrs in presence of ketoconazole by checkboard based microplate reader analysis; format: functional
[40] = Cytotoxicity against mouse J774.A1 cells assessed as cell survival at 32 microg/ml by XTT assay; format: toxicity, cell-based; details: at 32 µg/mL, read-out: Activity
Candida albicans [41] = assay: Additive antifungal activity against Candida albicans ATCC 64124 assessed as fractional inhibitory concentration index measured for 72 hrs in presence of fluconazole; format: functional

O=C(CCCN1CCC(O)(c2ccc(Br)cc2)CC1)c1ccc(F)cc1 [BROMPERIDOL]
viability at 16 microg/ml [1]: 72% | MIC (Candida albicans [2]): > 128 µg/mL | MIC (Candida albicans [3]): 64 µg/mL | fractional inhibitory concentration index (FICI) (Candida albicans [4]): 0.75 | fractional inhibitory concentration index (FICI) (Candida albicans [5]): 1.5 | MIC (Candida albicans [6]): 64 µg/mL | MIC (Candida albicans [7]): > 128 µg/mL | MIC (Candida albicans [8]): 64 µg/mL | MIC (Candida albicans [9]): 64 µg/mL | MIC (Candida albicans [10]): 8 µg/mL | Ratio (Candida albicans [11]): 8 | fractional inhibitory concentration index (FICI) (Candida albicans [12]): 0.19 | fractional inhibitory concentration index (FICI) (Candida albicans [13]): 2 | MIC (Candida albicans [14]): 64 µg/mL | Activity (Candida albicans [15]): Active | fractional inhibitory concentration index (FICI) (Candida albicans [16]): 2 | MIC (Candida albicans [17]): > 128 µg/mL | fractional inhibitory concentration index (FICI) (Candida albicans [18]): 0.52 | fractional inhibitory concentration index (FICI) (Candida albicans [19]): 0.75 | fractional inhibitory concentration index (FICI) (Candida albicans [20]): 0.16 | fractional inhibitory concentration index (FICI) (Nakaseomyces glabratus [21]): 0.5 | viability at 16 microg/ml [22]: 40% | viability [23]: 80% | fractional inhibitory concentration index (FICI) (Candida albicans [24]): 2 | Activity (BEAS-2B [25]): Non-Toxic | Activity (HEK293): Non-Toxic | viability [26]: > 100% | fractional inhibitory concentration index (FICI) (Candida albicans [27]): 2 | fractional inhibitory concentration index (FICI) (Nakaseomyces glabratus [28]): 0.51 | fractional inhibitory concentration index (FICI) (Candida albicans [29]): 0.75 | fractional inhibitory concentration index (FICI) (Candida albicans [30]): 0.75 | Activity (BEAS-2B [31]): Non-Toxic | MIC (Candida albicans [32]): 32 µg/mL | MIC (Candida albicans [33]): > 128 µg/mL | fractional inhibitory concentration index (FICI) (Candida albicans [34]): 0.75 | Activity (Candida albicans [35]): Active | Activity (BEAS-2B [36]): Non-Toxic | fractional inhibitory concentration index (FICI) (Candida albicans [37]): 0.75 | viability at 8 microg/ml [38]: 71% | MIC (Candida albicans [39]): 32 µg/mL | viability at 32 microg/ml [40]: 50% | fractional inhibitory concentration index (FICI) (Candida albicans [41]): 1.5
